Results as given in US11802120B2, “Fused cyclic urea derivatives as CRHR2 antagonist” (RaQualia Pharma Inc., priority 2018, dated 2023).

Target: T1, human CRHR2-alpha (Homo sapiens, UniProt Q13324)
T1 sequence (Q13324 1-411): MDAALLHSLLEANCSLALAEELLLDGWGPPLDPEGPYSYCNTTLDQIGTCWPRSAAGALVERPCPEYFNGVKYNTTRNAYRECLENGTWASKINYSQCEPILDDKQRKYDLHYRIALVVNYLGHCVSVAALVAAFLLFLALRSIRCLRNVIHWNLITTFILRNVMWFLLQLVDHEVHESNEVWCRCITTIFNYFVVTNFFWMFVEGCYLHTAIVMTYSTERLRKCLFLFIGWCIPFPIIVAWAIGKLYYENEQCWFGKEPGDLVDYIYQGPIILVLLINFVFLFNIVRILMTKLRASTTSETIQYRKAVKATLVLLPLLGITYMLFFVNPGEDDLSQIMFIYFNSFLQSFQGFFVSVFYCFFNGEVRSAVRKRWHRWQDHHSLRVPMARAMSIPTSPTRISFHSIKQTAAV
Assay: cAMP functional assay for human CRHR2 (LANCE Ultra cAMP, TR-FRET)
Format: cell-based
Conditions: CHO-K1 cells expressing human CRHR2-alpha, agonist human urocortin2 at EC80, cAMP; read-out: IC50 against CRHR2
Procedure, shortened: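 Inhibition of agonist-driven cAMP was assessed in recombinant CHO-K1 cells at 25° C, using 30 min compound pretreatment and 30 min stimulation with EC80 human urocortin2 (CRHR2) or CRF (CRHR1). IC50 came from dose-response fitting.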

Compound	IC50
Cc1ncc(Cl)cc1C(=O)N[C@H]1CC[C@H](Cn2c(=O)n(-c3cnc4c(C)n[nH]c4c3)c3ccccc32)CC1 [Example 172, 5-chloro-2-methyl-N-((1r,4r)-4-((3-(3-methyl-1H-pyrazolo[4,3-b]pyridin-6-yl)-2-oxo-2,3-dihydro-1H-benzo[d]imidazol-1-yl)methyl)cyclohexyl)nicotinamide]	< 300 nM
Cc1ncc(Cl)cc1C(=O)N[C@H]1CC[C@H](Cn2c(=O)n(-c3ccc(C(=O)Nc4ccn(C)n4)nc3)c3ccccc32)CC1 [Example 173, 5-(3-(((1r,4r)-4-(5-chloro-2-methylnicotinamido)cyclohexyl)methyl)-2-oxo-2,3-dihydro-1H-benzo[d]imidazol-1-yl)-N-(1-methyl-1H-pyrazol-3-yl)picolinamide]	< 300 nM
Cc1ncc(Cl)cc1C(=O)N[C@H]1CC[C@H](Cn2c(=O)n(-c3ccc(C(=O)Nc4ccccn4)nc3)c3ccccc32)CC1 [Example 174, 5-(3-(((1r,4r)-4-(5-chloro-2-methylnicotinamido)cyclo-hexyl)methyl)-2-oxo-2,3-dihydro-1H-benzo[d]imidazol-1-yl)-N-(pyridin-2-yl) picolinamide]	< 300 nM
Cc1ncc(Cl)cc1C(=O)N[C@H]1CC[C@H](Cn2c(=O)n(-c3ccc(C(=O)Nc4cccnn4)nc3)c3ccccc32)CC1 [Example 175, 5-(3-(((1r,4r)-4-(5-chloro-2-methylnicotinamido)cyclo-hexyl)methyl)-2-oxo-2,3-dihydro-1H-benzo[d]imidazol-1-yl)-N-(pyridazin-3-yl) picolinamide]	< 300 nM
Cc1ncc(Cl)cc1C(=O)N[C@H]1CC[C@H](Cn2c(=O)n(-c3ccc(C(=O)NCc4ccon4)nc3)c3ccccc32)CC1 [Example 176, 5-(3-(((1r,4r)-4-(5-chloro-2-methylnicotinamido)cyclo-hexyl)methyl)-2-oxo-2,3-dihydro-1H-benzo[d]imidazol-1-yl)-N-(isoxazol-3-ylmethyl) picolinamide]	< 300 nM
Cc1ncc(Cl)cc1C(=O)N[C@H]1CC[C@H](Cn2c(=O)n(-c3ccc(C(=O)Nc4cccnc4)nc3)c3ccccc32)CC1 [Example 177, 5-(3-(((1r,4r)-4-(5-chloro-2-methylnicotinamido)cyclo-hexyl)methyl)-2-oxo-2,3-dihydro-1H-benzo[d]imidazol-1-yl)-N-(pyridin-3-yl) picolinamide]	< 300 nM
Cc1ncc(Cl)cc1C(=O)N[C@H]1CC[C@H](Cn2c(=O)n(-c3ccc(C(=O)Nc4cncnc4)nc3)c3ccccc32)CC1 [Example 178, 5-(3-(((1r,4r)-4-(5-chloro-2-methylnicotinamido)cyclo-hexyl)methyl)-2-oxo-2,3-dihydro-1H-benzo[d]imidazol-1-yl)-N-(pyrimidin-5-yl) picolinamide]	< 300 nM
Cc1ncc(Cl)cc1C(=O)N[C@H]1CC[C@H](Cn2c(=O)n(-c3ccc(C(=O)NCc4cocn4)nc3)c3ccccc32)CC1 [Example 179, 5-(3-(((1r,4r)-(5-chloro-2-methylnicotinamido)cyclo-hexyl)methyl)-2-oxo-2,3-dihydro-1H-benzo[d]imidazol-1-yl)-N-(oxazol-4-ylmethyl) picolinamide]	< 300 nM
Cc1csc(CNC(=O)c2ccc(-n3c(=O)n(C[C@H]4CC[C@H](NC(=O)c5cc(Cl)cnc5C)CC4)c4ccccc43)cn2)n1 [Example 180, 5-(3-(((1r,4r)-4-(5-chloro-2-methylnicotinamido)cyclo-hexyl)methyl)-2-oxo-2,3-dihydro-1H-benzo[d]imidazol-1-yl)-N-((4-methylthiazol-2-yl)methyl)picolinamide]	< 300 nM
Cc1ncc(Cl)cc1C(=O)N[C@H]1CC[C@H](Cn2c(=O)n(-c3ccc(C(=O)Nc4ccncc4)nc3)c3ccccc32)CC1 [Example 181, 5-(3-(((1r,4r)-4-(5-chloro-2-methylnicotinamido)cyclo-hexyl)methyl)-2-oxo-2,3-dihydro-1H-benzo[d]imidazol-1-yl)-N-(pyridin-4-yl) picolinamide]	< 300 nM
CCNC(=O)c1ccc(-n2c(=O)n(C[C@H]3CC[C@H](NC(=O)c4cc(Cl)cnc4C)CC3)c3ccccc32)cn1 [Example 182, 5-(3-(((1r,4r)-4-(5-chloro-2-methylnicotinamido)cyclo-hexyl)methyl)-2-oxo-2,3-dihydro-1H-benzo[d]imidazol-1-yl)-N-ethylpicolinamide]	< 300 nM
Cc1ncc(Cl)cc1C(=O)N[C@H]1CC[C@H](Cn2c(=O)n(-c3ccc(C(=O)Nc4cc[nH]n4)nc3)c3ccccc32)CC1 [Example 183, 5-(3-(((1r,4r)-4-(5-chloro-2-methylnicotinamido)cyclo-hexyl)methyl)-2-oxo-2,3-dihydro-1H-benzo[d]imidazol-1-yl)-N-(1H-pyrazol-3-yl) picolinamide]	< 300 nM
Cc1ncc(Cl)cc1C(=O)N[C@H]1CC[C@H](Cn2c(=O)n(C3Cc4ccccc4C3)c3ccccc32)CC1 [Example 184, 5-chloro-N-((1r,4r)-4-((3-(2,3-dihydro-1H-inden-2-yl)-2-oxo-2,3-dihydro-1H-benzo [d]imidazol-1-yl)methyl)cyclohexyl)-2-methyl-nicotinamide]	< 300 nM
Cc1ncc(Cl)cc1C(=O)N[C@H]1CC[C@H](Cn2c(=O)n(-c3ccc4nn(C)c(C)c4c3)c3ccccc32)CC1 [Example 185, 5-chloro-N-((1r,4r)-4-((3-(2,3-dimethyl-2H-indazol-5-yl)-2-oxo-2,3-dihydro-1H-benzo[d]imidazol-1-yl)methyl)cyclohexyl)-2-methylnicotinamide]	< 300 nM
Cc1ncc(Cl)cc1C(=O)N[C@H]1CC[C@H](Cn2c(=O)n(-c3ccc4nccn4c3)c3ccccc32)CC1 [Example 186, 5-chloro-N-((1r,4r)-4-((3-(imidazo[1,2-a]pyridin-6-yl)-2-oxo-2,3-dihydro-1H-benzo [d]imidazol-1-yl)methyl)cyclohexyl)-2-methylnico-tinamide]	< 300 nM
Cc1ncc(Cl)cc1C(=O)N[C@H]1CC[C@H](Cn2c(=O)n(-c3cccc4ncncc34)c3ccccc32)CC1 [Example 187, 5-chloro-2-methyl-N-((1r,4r)-4-((2-oxo-3-(quinazolin-5-yl)-2,3-dihydro-1H-benzo[d]imidazol-1-yl)methyl)cyclo-hexyl)nicotinamide]	< 300 nM
CC(=O)N1Cc2ccc(-n3c(=O)n(C[C@H]4CC[C@H](NC(=O)c5cc(Cl)cnc5C)CC4)c4ccccc43)cc2C1 [Example 188, N-((1r,4r)-4-((3-(2-acetylisoindolin-5-yl)-2-oxo-2,3-dihydro-1H-benzo[d]imidazol-1-yl)methyl)cyclohexyl)-5-chloro-2-methylnicotinamide]	< 300 nM
Cc1ncc(Cl)cc1C(=O)N[C@H]1CC[C@H](Cn2c(=O)n(-c3ccc4c(c3)CCC4)c3ncccc32)CC1 [Example 189, 5-chloro-N-((1r,4r)-4-((3-(2,3-dihydro-1H-inden-5-yl)-2-oxo-2,3-dihydro-1H-imidazo[4,5-b]pyridin-1-yl)methyl)cyclohexyl)-2-methylnicotinamide]	< 300 nM
COc1ccc(-n2c(=O)n(C[C@H]3CC[C@H](NC(=O)c4cc(Cl)cnc4C)CC3)c3cccnc32)cc1 [Example 190, 5-chloro-N-((1r,4r)-4-((3-(4-methoxyphenyl)-2-oxo-2,3-dihydro-1H-imidazo [4,5-b]pyridin-1-yl)methyl)cyclohexyl)-2-methylnico-tinamide]	< 300 nM
Cc1ncc(Cl)cc1C(=O)N[C@H]1CC[C@H](Cn2c(=O)n(-c3ccc4c(C)nn(C)c4c3)c3ccccc32)CC1 [Example 191, 5-chloro-N-((1r,4r)-4-((3-(1,3-dimethyl-1H-indazol-6-yl)-2-oxo-2,3-dihydro-1H-benzo[d]imidazol-1-yl)methyl)cyclohexyl)-2-methylnicotinamide]	< 300 nM
CNC(=O)c1ccc(-n2c(=O)n(C[C@H]3CC[C@H](NC(=O)c4cc(Cl)cnc4C)CC3)c3cccc(C)c32)cn1 [Example 192, 5-(3-(((1r,4r)-4-(5-chloro-2-methylnicotinamido)cyclo-hexyl)methyl)-7-methyl-2-oxo-2,3-dihydro-1H-benzo [d]imidazol-1-yl)-N-methylpicolinamide]	< 300 nM
CNC(=O)c1ccc(-n2c(=O)n(C[C@H]3CC[C@H](NC(=O)c4cc(Cl)cnc4C)CC3)c3cc(OC)ccc32)cn1 [Example 194, 5-(3-(((1r,4r)-4-(5-chloro-2-methylnicotinamido)cyclohexyl)methyl)-5-methoxy-2-oxo-2,3-dihydro-1H-benzo[d]imidazol-1-yl)-N-methylpicolinamide]	< 300 nM
Cc1ncc(Cl)cc1C(=O)N[C@H]1CC[C@H](Cn2c(=O)n(-c3ccc4c(c3)oc(=O)n4CC3CC3)c3ccccc32)CC1 [Example 195, 5-chloro-N-((1r,4r)-4-((3-(3-(cyclopropylmethyl)-2-oxo-2,3-dihydrobenzo[d]oxazol-6-yl)-2-oxo-2,3-dihydro-1H-benzo[d]imidazol-1-yl)methyl)cyclohexyl)-2-methylnicotinamide]	< 300 nM
Cc1ncc(Cl)cc1C(=O)N[C@H]1CC[C@H](Cn2c(=O)n(-c3cnc4c(c3)OCC(=O)N4C)c3ccccc32)CC1 [Example 196, 5-chloro-2-methyl-N-((1r,4r)-4-((3-(4-methyl-3-oxo-3,4-dihydro-2H-pyrido[3,2-b][1,4]oxazin-7-yl)-2-oxo-2,3-dihydro-1H-benzo[d]imidazol-1-yl)methyl)cyclohexyl) nicotinamide]	< 300 nM
